Compound in one assay: COC1=C(C=C(C=C1)C2=CC3=NC=CN3C(=N2)NC4=C(C=CC=N4)C(=O)N)OC [BAY61-3606]
The assay is described as follows: relative viability (nuclei count vs DMSO), 5 days (fraction); higher = more cells survive. In a few lines:
(§1)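 Vehicle-anchored 1536-well plates of lung cancer cell lines, held overnight at 37 °C, were pinned with five library-drug doses (not always all listed) spaced by √10. No medium change followed over the next 5 days, after which the cells were fixed, permeabilised and Hoechst-stained together and imaged at 4×. Nuclei were counted with MetaXpress, and viability is treated-well nuclei over vehicle-well nuclei, taken as a median across plates. Plates passed with control CV below 25% and at least one doubling.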

Compound in the next assay: COc1cccc2c1C(=O)c1c(O)c3c(c(O)c1C2=O)C[C@@](O)(C(=O)CO)C[C@@H]3O[C@H]1C[C@H](N)[C@H](O)[C@H](C)O1 [Doxorubicin]
The assay is described as above. In a few lines:
as §1

Regarding NCI-H2170, the relative viability worked out at 0.983 with BAY61-3606 (0.02 µM); 0.978 with BAY61-3606 (0.06325 µM); 0.974 in the assay with BAY61-3606 (0.2 µM); 1.03 with BAY61-3606 (0.6325 µM); 0.932 in the assay with BAY61-3606 (2 µM); 0.973 with Doxorubicin (0.001 µM). Also, the relative viability with Doxorubicin (0.003162 µM) was 0.992; in the assay with Doxorubicin (0.01 µM), 0.93; with Doxorubicin (0.03162 µM), 0.799; in the assay with Doxorubicin (0.1 µM), 1.02.
As to NCI-H2228, the relative viability in the assay with BAY61-3606 (0.02 µM) came to 1.18; in the assay with BAY61-3606 (0.06325 µM) it was 0.922; with BAY61-3606 (0.2 µM), 0.944; in the assay with BAY61-3606 (0.6325 µM) it was 1.06; with BAY61-3606 (2 µM) it was 0.792; with Doxorubicin (0.001 µM), 0.859. In addition, the relative viability in the assay with Doxorubicin (0.003162 µM) came out at 1; in the assay with Doxorubicin (0.01 µM) it was 0.822; with Doxorubicin (0.03162 µM), 0.606; with Doxorubicin (0.1 µM) it was 0.339.
Consider NCI-H2342, for which the relative viability with BAY61-3606 (0.02 µM) stood at 0.966; with BAY61-3606 (0.06325 µM), 1.02; in the assay with BAY61-3606 (0.2 µM) it was 0.908; with BAY61-3606 (0.6325 µM), 0.966; with BAY61-3606 (2 µM) it was 1.15; with Doxorubicin (0.001 µM), 0.938. Besides, the relative viability amounted to 1.03 in the assay with Doxorubicin (0.003162 µM), 0.929 with Doxorubicin (0.01 µM), 0.763 in the assay with Doxorubicin (0.03162 µM) and 0.877 with Doxorubicin (0.1 µM).
With NCI-H2347, the relative viability with BAY61-3606 (0.02 µM) was determined as 1.03; with BAY61-3606 (0.06325 µM), 1.05; with BAY61-3606 (0.2 µM) it was 1.04; in the assay with BAY61-3606 (0.6325 µM), 1; in the assay with BAY61-3606 (2 µM) it was 1.05; with Doxorubicin (0.001 µM), 0.992. Moreover, the relative viability worked out at 1.08 in the assay with Doxorubicin (0.003162 µM), 0.945 with Doxorubicin (0.01 µM), 0.945 with Doxorubicin (0.03162 µM) and 0.838 in the assay with Doxorubicin (0.1 µM).
Turning to NCI-H2405, the relative viability stood at 1.07 with BAY61-3606 (0.02 µM); 0.984 with BAY61-3606 (0.06325 µM); 0.977 with BAY61-3606 (0.2 µM); 0.968 in the assay with BAY61-3606 (0.6325 µM); 0.84 in the assay with BAY61-3606 (2 µM); 0.972 with Doxorubicin (0.001 µM). Further, the relative viability with Doxorubicin (0.003162 µM) was found to be 1.04; with Doxorubicin (0.01 µM), 1.08; with Doxorubicin (0.03162 µM), 0.997; in the assay with Doxorubicin (0.1 µM), 0.626.
For the cell line NCI-H3122, the relative viability in the assay with BAY61-3606 (0.02 µM) was 1.02; in the assay with BAY61-3606 (0.06325 µM), 1; in the assay with BAY61-3606 (0.2 µM) it was 0.985; with BAY61-3606 (0.6325 µM), 1.01; with BAY61-3606 (2 µM), 0.961; with Doxorubicin (0.001 µM) it was 0.946. Also, the relative viability with Doxorubicin (0.003162 µM) was found to be 1.01; in the assay with Doxorubicin (0.01 µM), 0.908; with Doxorubicin (0.03162 µM), 0.876; in the assay with Doxorubicin (0.1 µM), 0.92.
On to PC-3 [JPC-3], for which the relative viability with BAY61-3606 (0.02 µM) is 1.04; with BAY61-3606 (0.06325 µM) it was 1; with BAY61-3606 (0.2 µM), 1; in the assay with BAY61-3606 (0.6325 µM), 1.02; with BAY61-3606 (2 µM), 0.939; with Doxorubicin (0.001 µM), 1.08. The relative viability was found to be 1.05 in the assay with Doxorubicin (0.003162 µM), 1.04 with Doxorubicin (0.01 µM), 0.998 with Doxorubicin (0.03162 µM) and 0.982 with Doxorubicin (0.1 µM).
Take PC-14: the relative viability turned out to be 1.07 with BAY61-3606 (0.02 µM); 1.04 with BAY61-3606 (0.06325 µM); 0.916 with BAY61-3606 (0.2 µM); 0.992 with BAY61-3606 (0.6325 µM); 0.877 with BAY61-3606 (2 µM); 0.974 in the assay with Doxorubicin (0.001 µM). Further, the relative viability came out at 1.05 in the assay with Doxorubicin (0.003162 µM), 1.01 with Doxorubicin (0.01 µM), 0.789 with Doxorubicin (0.03162 µM) and 0.52 with Doxorubicin (0.1 µM).
For RERF-LC-KJ, the relative viability with BAY61-3606 (0.02 µM) was found to be 1.04; in the assay with BAY61-3606 (0.06325 µM) it was 1.03; in the assay with BAY61-3606 (0.2 µM), 0.93; with BAY61-3606 (0.6325 µM), 1.06; with BAY61-3606 (2 µM), 0.791; with Doxorubicin (0.001 µM), 0.986. For the same cell line, the relative viability in the assay with Doxorubicin (0.003162 µM) was found to be 1.04; in the assay with Doxorubicin (0.01 µM) it was 0.986; in the assay with Doxorubicin (0.03162 µM) it was 0.713; in the assay with Doxorubicin (0.1 µM), 0.904.
For the cell line SK-LU-1, the relative viability with BAY61-3606 (0.02 µM) was 1.08; with BAY61-3606 (0.06325 µM), 1.04; with BAY61-3606 (0.2 µM) it was 1.04; with BAY61-3606 (0.6325 µM), 1.06; with BAY61-3606 (2 µM), 0.694; with Doxorubicin (0.001 µM) it was 1. For the same cell line, the relative viability in the assay with Doxorubicin (0.003162 µM) worked out at 1.05; with Doxorubicin (0.01 µM) it was 0.987; with Doxorubicin (0.03162 µM) it was 0.798; with Doxorubicin (0.1 µM) it was 0.654.
Turning to SK-MES-1, the relative viability with BAY61-3606 (0.02 µM) amounted to 1.02; with BAY61-3606 (0.06325 µM), 0.994; in the assay with BAY61-3606 (0.2 µM), 0.974; with BAY61-3606 (0.6325 µM) it was 1.06; with BAY61-3606 (2 µM), 0.891; with Doxorubicin (0.001 µM), 0.997. Further, the relative viability came to 1.06 in the assay with Doxorubicin (0.003162 µM), 0.906 with Doxorubicin (0.01 µM), 0.594 in the assay with Doxorubicin (0.03162 µM) and 0.542 with Doxorubicin (0.1 µM).
On to SW 900, for which the relative viability with BAY61-3606 (0.02 µM) is 0.895; in the assay with BAY61-3606 (0.06325 µM), 0.762; with BAY61-3606 (0.2 µM), 0.678; in the assay with BAY61-3606 (0.6325 µM), 0.937; with BAY61-3606 (2 µM), 0.813; with Doxorubicin (0.001 µM), 0.671. In addition, the relative viability in the assay with Doxorubicin (0.003162 µM) turned out to be 0.992; in the assay with Doxorubicin (0.01 µM) it was 0.774; with Doxorubicin (0.03162 µM), 0.665; with Doxorubicin (0.1 µM), 0.404.
On to SW 1573, for which the relative viability was 1.04 with BAY61-3606 (0.02 µM); 1.03 with BAY61-3606 (0.06325 µM); 0.905 in the assay with BAY61-3606 (0.2 µM); 1 with BAY61-3606 (0.6325 µM); 0.659 with BAY61-3606 (2 µM); 0.876 with Doxorubicin (0.001 µM). The relative viability with Doxorubicin (0.003162 µM) was found to be 0.914; in the assay with Doxorubicin (0.01 µM) it was 0.539; with Doxorubicin (0.03162 µM), 0.364; with Doxorubicin (0.1 µM), 0.292.

The values are drawn from the supplement of paper PMC10307832.
